Reference: patent US7994140B2, “Classes of compounds that interact with GPCRs” (Alchemia Limited, priority 2002, dated 2011)

How the values were obtained:
MC4 = biological target: T1, MC4 (Homo sapiens, UniProt P32245); assay: GPCR radioligand binding (RLB) assay, melanocortin MC4, [125I]NDP-αMSH
T1 construct: purchased Perkin Elmer BioSignal; host or cells: HEK 293
Outline: (§1)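 Membranes from HEK 293 cells expressing the recombinant human receptor were equilibrated with [125I]SST-14 (SST5) or [125I]NDP-αMSH (MC4), then compound added for an optimized incubation. Bound ligand separated by filtration on PEI-coated glass fiber and counted by liquid scintillation.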

SST5 = biological target: T2, SST5 (Homo sapiens, UniProt P35346); assay: GPCR radioligand binding (RLB) assay, somatostatin SST5, [125I]SST-14; settings: for SST5 inhibition at 10 micromolar: 10 micromolar compound, recombinant human receptor membranes (HEK 293); for SSTS inhibition at 10 micromolar: Example Library 4
T2 construct: purchased Perkin Elmer BioSignal; host or cells: HEK 293
T2 sequence (P35346 whole entry): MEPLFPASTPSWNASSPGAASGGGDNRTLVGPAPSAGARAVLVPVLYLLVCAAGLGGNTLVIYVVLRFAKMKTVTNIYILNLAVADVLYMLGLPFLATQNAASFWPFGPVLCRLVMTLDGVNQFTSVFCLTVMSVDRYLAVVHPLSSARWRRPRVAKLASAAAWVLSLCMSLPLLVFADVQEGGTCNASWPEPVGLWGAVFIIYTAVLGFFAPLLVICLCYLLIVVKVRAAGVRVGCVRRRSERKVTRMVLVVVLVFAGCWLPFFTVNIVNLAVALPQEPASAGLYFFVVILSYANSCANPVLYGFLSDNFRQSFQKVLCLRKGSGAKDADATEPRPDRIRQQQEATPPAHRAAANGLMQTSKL
Outline: as §1

[1] = 10 micromolar compound, recombinant human receptor membranes (HEK 293)
[2] = 10 micromolar, Example Library 4

T1 sequence (P32245 whole entry): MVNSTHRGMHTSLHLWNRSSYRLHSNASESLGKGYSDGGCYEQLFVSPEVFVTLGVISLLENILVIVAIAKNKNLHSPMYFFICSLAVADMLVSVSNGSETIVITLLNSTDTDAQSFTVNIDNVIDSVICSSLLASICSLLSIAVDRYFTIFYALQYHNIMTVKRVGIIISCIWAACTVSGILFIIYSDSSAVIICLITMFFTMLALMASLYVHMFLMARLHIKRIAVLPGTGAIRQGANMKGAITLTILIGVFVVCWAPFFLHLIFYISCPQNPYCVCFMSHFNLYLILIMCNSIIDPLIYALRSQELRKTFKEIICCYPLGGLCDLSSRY

Row | SMILES | MC4 inhibition at 10 micromolar (MC4; [1]) | SST5 inhibition at 10 micromolar (SST5) | MC4 inhibition at 10 micromolar (MC4; [2]) | SSTS inhibition at 10 micromolar (SST5)
1 | CSC1OC(COCc2ccc3ccccc3c2)C(O)C(OCc2ccccc2)C1NC(=O)CNC(=N)N (stereo not drawn) [Compound 138] | + (Indicates inhibition greater than . . . 50%) | + (Indicates inhibition greater than . . . 50%) |  | 
2 | CSC1OC(COCc2ccccc2)C(O)C(OCc2ccc3ccccc3c2)C1NC(=O)CN (stereo not drawn) [Compound 191] | + (Indicates inhibition greater than . . . 50%) | + (Indicates inhibition greater than . . . 50%) |  | 
3 | COCC1OC(OCc2ccc(Cl)cc2)C(NC(=O)CCN)C(OCc2ccc(Cl)cc2)C1O (stereo not drawn) [Compound 244] |  |  | + (Indicates inhibition greater than . . . 50%) | + (Indicates inhibition greater than . . . 50%)
4 | CSC1OC(COCc2ccccc2)C(O)C(OCc2ccccc2)C1NC(=O)CCNC(=N)N (stereo not drawn) [Compound 122] | + (Indicates inhibition greater than . . . 50%) | + (Indicates inhibition greater than . . . 50%) |  | 
5 | COCC1OC(OCc2ccccc2)C(NC(=O)CCCNC(=N)N)C(OCc2ccc(Cl)cc2)C1O (stereo not drawn) [Compound 224] |  |  | + (Indicates inhibition greater than . . . 50%) | + (Indicates inhibition greater than . . . 50%)
6 | CSC1OC(COCc2ccc(Cl)cc2)C(O)C(OCc2ccc(-c3ccccc3)cc2)C1NC(=O)CNC(=N)N (stereo not drawn) [Compound 174] | + (Indicates inhibition greater than . . . 50%) | + (Indicates inhibition greater than . . . 50%) |  | 
7 | COCC1OC(OCc2ccccc2)C(NC(=O)CCNC(=N)N)C(OCc2ccc(-c3ccccc3)cc2)C1O (stereo not drawn) [Compound 228] |  |  | + (Indicates inhibition greater than . . . 50%) | + (Indicates inhibition greater than . . . 50%)
8 | COCC1OC(OCc2ccc(Cl)cc2)C(NC(=O)CCNC(=N)N)C(OCc2ccc3ccccc3c2)C1O (stereo not drawn) [Compound 257] |  |  | + (Indicates inhibition greater than . . . 50%) | + (Indicates inhibition greater than . . . 50%)
9 | CSC1OC(COCc2ccccc2)C(O)C(OCc2ccc3ccccc3c2)C1NC(=O)CCNC(=N)N (stereo not drawn) [Compound 194] | + (Indicates inhibition greater than . . . 50%) | + (Indicates inhibition greater than . . . 50%) |  | 
10 | COCC1OC(OCc2ccc3ccccc3c2)C(NC(=O)CCCNC(=N)N)C(OCc2ccc3ccccc3c2)C1O (stereo not drawn) [Compound 307] |  |  | + (Indicates inhibition greater than . . . 50%) | + (Indicates inhibition greater than . . . 50%)
11 | COC1C(O)C(COCc2ccc3ccccc3c2)OC(OCc2ccc(Cl)cc2)C1NC(=O)CCNC(=N)N (stereo not drawn) [Compound 88] | + (Indicates inhibition greater than . . . 50%) | + (Indicates inhibition greater than . . . 50%) |  | 
12 | COCC1OC(OCCc2ccccc2)C(NC(=O)CCCNC(=N)N)C(OCc2ccc(Cl)cc2)C1O (stereo not drawn) [Compound 271] |  |  | + (Indicates inhibition greater than . . . 50%) | + (Indicates inhibition greater than . . . 50%)
13 | CSC1OC(COCc2ccc3ccccc3c2)C(O)C(OCc2ccccc2)C1NC(=O)CCNC(=N)N (stereo not drawn) [Compound 140] | + (Indicates inhibition greater than . . . 50%) | + (Indicates inhibition greater than . . . 50%) |  | 
14 | CSC1OC(COCc2ccccc2)C(O)C(OCc2ccc(-c3ccccc3)cc2)C1NC(=O)CNC(=N)N (stereo not drawn) [Compound 168] | + (Indicates inhibition greater than . . . 50%) | + (Indicates inhibition greater than . . . 50%) |  | 
15 | COCC1OC(OCc2ccc(Cl)cc2)C(NC(=O)CCNC(=N)N)C(OCc2ccccc2)C1O (stereo not drawn) [Compound 239] |  |  | + (Indicates inhibition greater than . . . 50%) | + (Indicates inhibition greater than . . . 50%)
